For test [1], the system named is Blumeria graminis f. sp. tritici (Erysiphe graminis f. sp. tritici). The experiment in a line: Example A4: Blumeria graminis f. sp. tritici / wheat / leaf disc preventative (powdery mildew on wheat). It is filed as in vivo. To be noted: foliar, compared to untreated control. From the text:
Example A4: Blumeria graminis f. Sp. Tritici (Erysiphe graminis f. Sp. Tritici)/Wheat/Leaf Disc Preventative (Powdery Mildew on Wheat) Wheat leaf segments cv. Kanzler are placed on agar in a multiwell plate (24-well format) and sprayed with the formulated test compound diluted in water. The leaf disks are inoculated by shaking powdery mildew infected plants above the test plates 1 day after application. […] […].10, and X.11.

In test [2] the test system is Glomerella lagenarium (Colletotrichum lagenarium). The experiment in a line: Example A3: Glomerella lagenarium (Colletotrichum lagenarium) / liquid culture (anthracnose). It is filed as cell-based. The following applies: Colletotrichum orbiculare, compared to untreated control. From the text: Example A3: Glomerella lagenarium (Colletotrichum lagenarium)/Liquid Culture (Anthracnose) Conidia of the fungus from cryogenic storage are directly mixed into nutrient broth (PDB potato dextrose broth). […] […].10, and X.11.

For test [3], the system named is Alternaria solani. In words: Example A1: Alternaria solani / tomato / leaf disc (early blight). It is filed as in vivo. The following applies: foliar, tomato leaf disks, compared to untreated control. The protocol: Example A1: Alternaria solani/Tomato/Leaf Disc (Early Blight) Tomato leaf disks cv. Baby are placed on agar in multiwell plates (24-well format) and sprayed with the formulated test compound diluted in water. The leaf disks are inoculated with a spore suspension of the fungus 2 days after application. The inoculated leaf disks are incubated at 23° C./21° C. […] […].10, and X.11.

Test [4] deals with Puccinia recondita f. sp. tritici. In words: Example A10: Puccinia recondita f. sp. tritici / wheat / leaf disc preventative (brown rust). The format is in vivo. The following applies: foliar, compared to untreated control. Here is the method:
Example A10: Puccinia recondita f. Sp. Tritici/Wheat/Leaf Disc Preventative (Brown Rust) Wheat leaf segments cv. Kanzler are placed on agar in multiwell plates (24-well format) and sprayed with the formulated test compound diluted in water. The leaf disks are inoculated with a spore suspension of the fungus 1 day after application. The inoculated leaf segments are incubated at 19° C. and 75% rh under a light regime of 12 h light/12 h darkness in a climate cabinet and the activity of a compound is assessed as percent disease control compared to untreated when an appropriate level of disease damage appears in untreated check leaf segments (7-9 days after application). […] […].10, and X.11.

Test [5] deals with Pyrenophora teres. In words: Example A12: Pyrenophora teres / barley / leaf disc preventative (net blotch). It is filed as in vivo. The following applies: foliar, compared to untreated control. The protocol:
Example A12: Pyrenophora teres/Barley/Leaf Disc Preventative (Net Blotch) Barley leaf segments cv. Hasso are placed on agar in a multiwell plate (24-well format) and sprayed with the formulated test compound diluted in water. The leaf […] inoculated with a spore suspension of the fungus 2 days after application. The inoculated leaf segments are incubated at 20° C. and 65% rh under a light regime of 12 h light/12 h darkness in a climate cabinet and the activity of a compound is assessed as disease control compared to untreated when an appropriate level of disease damage appears in untreated check leaf segments (5-7 days after application). […] […].10, and X.11.

In test [6] the test system is Monographella nivalis (Microdochium nivale). In words: Example A6: Monographella nivalis (Microdochium nivale) / liquid culture (foot rot cereals). The following applies: compared to untreated control. It is filed as cell-based. The text has this:
Example A6: Monographella nivalis (Microdochium nivale)/Liquid Culture (Foot Rot Cereals) Conidia of the fungus from cryogenic storage are directly mixed into nutrient broth (PDB potato dextrose broth). […] […].10, and X.11.

Test [7] deals with Magnaporthe grisea (Pyricularia oryzae). The experiment in a line: whole plant or invertebrate. It is filed as in vivo. To be noted: foliar, read-out: control of Magnaporthe grisea.
Test [8] concerns Sclerotinia sclerotiorum. In words: Example A13: Sclerotinia sclerotiorum / liquid culture (cottony rot). To be noted: 20 ppm, compared to untreated control. The format is cell-based.

The inhibition of growth is the share of the control response that was lost under treatment. A high value points to a strong effect. As for `Cc1sc(N(C(=O)C2CCOC2)c2cc(F)nc(F)c2)nc1C(=O)N(C(=O)C1CCOC1)C1CCC1(C)C` (centres unmarked) [Compound X.01, 2-[(2,6-difluoro-4-pyridyl)-(tetrahydrofuran-3-carbonyl)amino]-N-(2,2-dimethylcyclobutyl)-5-methyl-N-(tetrahydrofuran-3-carbonyl)thiazole-4-carboxamide], the pest or weed control at 200 ppm in test [1], in test [3], in test [4], in test [5] and in test [7] was no less than 80% each time. The inhibition of growth at 20 ppm in test [2] and in test [6] was no less than 80% each time.
Consider `Cc1sc(N(C(=O)C2CCCO2)c2cc(F)nc(F)c2)nc1C(=O)NC1CCC1(C)C` (centres unmarked) [X.02, 2-[(2,6-difluoro-4-pyridyl)-(tetrahydrofuran-2-carbonyl)amino]-N-(2,2-dimethylcyclobutyl)-5-methyl-thiazole-4-carboxamide], for which the pest or weed control at 200 ppm in test [1], in test [3], in test [4], in test [5] and in test [7] was no less than 80% in each case. Moreover, the inhibition of growth at 20 ppm in test [2] and in test [6] was no less than 80% throughout.
For `Cc1sc(N(C(=O)C2CCOC2)c2cc(F)nc(F)c2)nc1C(=O)NC1CCC1(C)C` (centres unmarked) [X.03, 2-[(2,6-difluoro-4-pyridyl)-(tetrahydrofuran-3-carbonyl)amino]-N-(2,2-dimethylcyclobutyl)-5-methyl-thiazole-4-carboxamide], the pest or weed control at 200 ppm in test [1], in test [3], in test [4], in test [5] and in test [7] was no less than 80% each time. The inhibition of growth at 20 ppm in test [2] and in test [6] was no less than 80% each time.
With `Cc1sc(N(C(=O)C2COC2)c2cc(F)nc(F)c2)nc1C(=O)NC1CCC1(C)C` (centres unmarked) [X.04, 2-[(2,6-difluoro-4-pyridyl)-(oxetane-3-carbonyl)amino]-N-(2,2-dimethylcyclobutyl)-5-methyl-thiazole-4-carboxamide], the pest or weed control at 200 ppm in test [1], in test [3], in test [4], in test [5] and in test [7] was no less than 80% each time. The inhibition of growth at 20 ppm in test [2] and in test [6] was no less than 80% throughout.
As for `Cc1sc(N(C(=O)C(C)OC(C)(C)C)c2cc(F)nc(F)c2)nc1C(=O)NC1CCC1(C)C` (centres unmarked) [X.05, 2-[2-tert-butoxypropanoyl-(2,6-difluoro-4-pyridyl)amino]-N-(2,2-dimethylcyclobutyl)-5-methyl-thiazole-4-carboxamide], the pest or weed control at 200 ppm in test [1], in test [3], in test [4], in test [5] and in test [7] was no less than 80% throughout. For the same compound, the inhibition of growth at 20 ppm in test [6] is no less than 80%.
In the case of `Cc1sc(N(C(=O)C(C)OC(C)C)c2cc(F)nc(F)c2)nc1C(=O)NC1CCC1(C)C` (centres unmarked) [X.06, 2-[(2,6-difluoro-4-pyridyl)-(2-isopropoxypropanoyl)amino]-N-(2,2-dimethylcyclobutyl)-5-methyl-thiazole-4-carboxamide], the pest or weed control at 200 ppm in test [1], in test [3], in test [4], in test [5] and in test [7] was no less than 80% in each case. Besides, the inhibition of growth at 20 ppm in test [2] and in test [6] was no less than 80% in each case.
Consider `Cc1sc(N(C(=O)COC(C)(C)C)c2cc(F)nc(F)c2)nc1C(=O)NC1CCC1(C)C` (centres unmarked) [X.07, 2-[(2-tert-butoxyacetyl)-(2,6-difluoro-4-pyridyl)amino]-N-(2,2-dimethylcyclobutyl)-5-methyl-thiazole-4-carboxamide], for which the pest or weed control at 200 ppm in test [1] and in test [7] was no less than 80% in each case.
`Cc1sc(N(C(=O)COC(C)C)c2cc(F)nc(F)c2)nc1C(=O)NC1CCC1(C)C` (centres unmarked) [X.08, 2-[(2,6-difluoro-4-pyridyl)-(2-isopropoxyacetyl)amino]-N-(2,2-dimethylcyclobutyl)-5-methyl-thiazole-4-carboxamide]: the pest or weed control at 200 ppm in test [1] and in test [7] was no less than 80% in each case.
On to `COC(C)C(=O)N(c1cc(F)nc(F)c1)c1nc(C(=O)NC2CCC2(C)C)c(C)s1` (centres unmarked) [X.09, 2-[(2,6-difluoro-4-pyridyl)-(2-methoxypropanoyl)amino]-N-(2,2-dimethylcyclobutyl)-5-methyl-thiazole-4-carboxamide], for which the pest or weed control at 200 ppm in test [1], in test [3], in test [4], in test [5] and in test [7] was no less than 80% throughout. The inhibition of growth at 20 ppm in test [2] and in test [6] was no less than 80% each time.
On to `Cc1sc(N(C(=O)C(C)S(C)(=O)=O)c2cc(F)nc(F)c2)nc1C(=O)NC1CCC1(C)C` (centres unmarked) [X.10, 2-[(2,6-difluoro-4-pyridyl)-(2-methylsulfonylpropanoyl)amino]-N-(2,2-dimethylcyclobutyl)-5-methyl-thiazole-4-carboxamide], for which the pest or weed control at 200 ppm in test [1], in test [3], in test [5] and in test [7] was no less than 80% each time. For the same compound, the inhibition of growth at 20 ppm in test [2] and in test [6] was no less than 80% each time. Besides, the “control of Sclerotinia sclerotiorum” value in test [8] was “at least 80%”.
With `Cc1sc(N(C(=O)C2CCOCC2)c2cc(F)nc(F)c2)nc1C(=O)NC1CCC1(C)C` (centres unmarked) [X.11, 2-[(2,6-difluoro-4-pyridyl)-(tetrahydropyran-4-carbonyl)amino]-N-(2,2-dimethylcyclobutyl)-5-methyl-thiazole-4-carboxamide], the pest or weed control at 200 ppm in test [1], in test [3], in test [4] and in test [5] was no less than 80% in each case. Also, the inhibition of growth at 20 ppm in test [2] and in test [6] was no less than 80% throughout.

The values above are taken from patent US20250040552A1, “FUNGICIDAL COMPOSITIONS” (SYNGENTA CROP PROTECTION AG, priority 2021, published 2025).
